According to patent publication US10421751B2, “Dihydro-2H-benzo[b][1,4]oxazine sulfonamide and related compounds for use as agonists of RORγ and the treatment of disease” (Lycera Corporation, priority 2015, dated 2019):

Assays:
RORγ-LBD = target: T1, RORγ-LBD (Homo sapiens, UniProt P51449); assay: RORγ-Ligand Binding Domain (LBD) TR-FRET Assay; assay type: biochemical; conditions: for EC50: in presence of 2 μM RORγ antagonist ursolic acid, SRC1 coactivator peptide; for TR-FRET Assay Max Response: upper plateau of 4-parameter fit, signal in the absence of ursolic acid or test compound set as 100
T1 construct: made in house; host or cells: SF9 cells, baculovirus expression system; used as diluted lysate
T1 sequence (P51449 269-508 limits assumed): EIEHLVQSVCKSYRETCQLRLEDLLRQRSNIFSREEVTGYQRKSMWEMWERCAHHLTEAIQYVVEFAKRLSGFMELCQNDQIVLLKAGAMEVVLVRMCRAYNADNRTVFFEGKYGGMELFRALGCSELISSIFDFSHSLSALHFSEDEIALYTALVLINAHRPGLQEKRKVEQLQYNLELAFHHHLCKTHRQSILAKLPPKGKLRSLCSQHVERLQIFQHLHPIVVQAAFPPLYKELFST
Method: HIS-tagged RORγ-LBD protein was expressed in SF9 cells using a baculovirus expression system. The lysate was diluted in assay buffer (50 mM Tris pH 7.0, 50 mM KCl, 1 mM EDTA, 0.1 mM DTT, 0.01% BSA) to obtain RORγ-LBD final concentration of ˜3 nM in a 384-well assay plate (need to titrate for each batch of protein).
A stock of biotinylated-LXXLL peptide from coactivator SRC1 (Biotin-[…]) was prepared in assay buffer and added to each well (200 nM final concentration). A solution of Europium tagged anti-HIS antibody (0.6 nM final concentration) and APC-conjugated streptavidin (30 nM final concentration) were also added to each well. RORγ antagonist ursolic acid was also included at a final concentration of 2 μM. Compounds were diluted in DMSO and further diluted in assay buffer with a final DMSO concentration at 1%.
The final assay mixture was incubated overnight at 4° C. or 2 hours at room temperature, and the fluorescence signal was measured on an Envision plate reader: (Excitation filter=340 nm; APC emission=665 nm; Europium emission=615 nm; dichroic mirror=D400/D630; delay time=100 μs, integration time=200 μs). 50% Effective concentration (EC50) values for test compounds were calculated from the quotient of the fluorescence signal at 665 nm divided by the fluorescence signal at 615 nm. The quotient of the fluorescence signals in the absence of ursolic acid or test compound is set as 100. Max Response is defined as the upper plateau in the signal as determined by line-fit using a 4-parameter logistic model in PRISM (GraphPad).

Gal4-RORγ-LBD = target: T2, Gal4-RORγ-LBD (Homo sapiens, UniProt P51449); assay: Gal4-RORγ Luciferase Reporter Assay in HEK-293T Cells; assay type: cell-based; conditions: for EC50: HEK-293 cells, in presence of 2 μM ursolic acid, overnight incubation, read-out: Ga14-RORγ Assay EC50; for Ga14-RORγ Assay Max Response: upper plateau of 4-parameter fit, luciferase signal in the absence of ursolic acid or test compound defined at 100
T2 construct: expressed in transfected cells; pcDNA3.1neo plasmid, co-transfected with pGL4.31 Gal4-luciferase reporter
T2 sequence (P51449 269-508 limits assumed): T1 sequence (P51449 269-508 limits assumed)
Method: In the following protocol, HEK-293 cells were transfected with a construct comprising the Gal4 DNA binding domain fused to the ligand binding domain of RORγ (Gal4-RORγ-LBD) in a pcDNA3.1neo plasmid, and also with a reporter construct comprising pGL4.31 Gal4-luciferase (Promega). Control cells were prepared similarly using empty pcDNA3.1neo and pGL4.31 vectors.
Trans-IT reagent (Mirus, 60 μL) at room temperature was added drop wise to OptiMEM (Invitrogen, 1.5 ml). This reagent mixture was mixed by inversion then incubated for 5 to 30 minutes at room temperature. It then was added to a solution of both expression vectors (5 μg each), mixed, and incubated at room temperature for about 20 minutes. HEK-293 cells were harvested from incubation flasks by removing the media, treating with TrypLE Express (Invitrogen), and incubating until the cells detached from the bottom of the flask (approximately 2-5 minutes). 10 Million cells were collected by centrifugation and re-suspended in 10 mL of Dulbecco's Modified Eagle Medium, High Glucose (DMEM, Invitrogen) containing 10% Fetal Bovine Serum and 100 IU each of penicillin and streptomycin. The re-suspended cells and the transfection mixture were added to a T75 flask, mixed and incubated overnight at 37° C. and 5% CO2.
The cells were harvested as described above, counted, and centrifuged to obtain the desired number of cells, then re-suspended in complete growth media at 0.75×10^6 cells/mL. The RORγ antagonist, ursolic acid, was added to the cells at a final concentration of 2 μM. Cells were plated at 20 μL of cell suspension/well (10,000-15,000 cells/well) in white tissue culture treated 384 well plates. Test compounds were dissolved at 10 mM in DMSO then diluted into complete growth medium to 5× the final intended test concentration. These drug stock solutions, 5 μL/well were added to the tissue culture plate. The final DMSO concentration was 0.2%. The plates were briefly centrifuged then incubated overnight at 37° C. and 5% CO2. To conduct the assay, the tissue culture plates were allowed to equilibrate to room temperature and One-Glo luciferase reagent (Promega, 25 μL/well) was added. The plates were briefly centrifuged then incubated at room temperature for 10 minutes. The luciferase intensity was read on an Envision plate reader (Perkin Elmer). RORγ activity was determined relative to controls and plotted as a function of test compound concentration using PRISM (GraphPad) to determine a 50% effective concentration (EC50). The luciferase signal in the absence of ursolic acid or test compound is defined at 100. The Max Response is the upper plateau in the signal as determined by line-fit using a 4-parameter logistic model in PRISM (GraphPad).

SMILES | EC50 (RORγ-LBD) [nM] | TR-FRET Assay Max Response (RORγ-LBD) | EC50 (Gal4-RORγ-LBD) [nM] | Ga14-RORγ Assay Max Response (Gal4-RORγ-LBD)
C/C(=C\c1ccc2c(c1)N(S(=O)(=O)c1cccc(C(F)(F)F)c1)C[C@H](CCn1ccnc1)O2)c1c(F)cccc1Cl | < 100 | *** (a value in the range of greater than 150 to 200) | 100 to 5000 | ** (a value in the range of greater than 90 to 150)
O=c1[nH]nc(CC[C@H]2CN(S(=O)(=O)c3cccc(OC(F)F)c3)c3cc(/C=C/c4c(Cl)cccc4C(F)(F)F)ccc3O2)o1 | < 100 | **** (a value greater than 200) | 100 to 5000 | ** (a value in the range of greater than 90 to 150)
COc1cc(S(=O)(=O)N2C[C@H](CCOc3noc(=O)[nH]3)Oc3ccc(/C=C(\C)c4c(F)cccc4Cl)cc32)ccc1F | < 100 | *** (a value in the range of greater than 150 to 200) | 100 to 5000 | **** (a value greater than 200)
CCOc1ncc(C(F)(F)F)cc1S(=O)(=O)N1C[C@H](CCc2n[nH]c(=O)o2)Oc2ccc(/C=C/c3c(Cl)cccc3C(F)(F)F)cc21 | 100 to 5000 | **** (a value greater than 200) | 100 to 5000 | ** (a value in the range of greater than 90 to 150)
C/C(=C\c1ccc2c(c1)N(S(=O)(=O)c1cccc(C(F)(F)F)c1)[C@H](C)[C@H](Cn1ccnn1)C2)c1c(F)cccc1Cl | < 100 | *** (a value in the range of greater than 150 to 200) | > 10000 | * (a value in the range of 40 to 90)
C/C(=C\c1ccc2c(c1)N(S(=O)(=O)c1cccc(C(F)(F)F)c1)C[C@H](CCCn1ccnc1)O2)c1c(F)cccc1Cl | < 100 | *** (a value in the range of greater than 150 to 200) | 100 to 5000 | ** (a value in the range of greater than 90 to 150)
C/C(=C\c1ccc2c(c1)N(S(=O)(=O)c1cc(Cl)cnc1OCCO)C[C@H](CCc1n[nH]c(=O)o1)O2)c1c(F)cccc1Cl | < 100 | **** (a value greater than 200) | 100 to 5000 | ** (a value in the range of greater than 90 to 150)
C/C(=C\c1ccc2c(c1)N(S(=O)(=O)c1cccc(C(F)(F)F)c1)C[C@H](CCc1n[nH]c(=O)o1)O2)c1c(F)cccc1Cl | < 100 | ** (a value in the range of greater than 90 to 150) | 100 to 5000 | ** (a value in the range of greater than 90 to 150)
C/C(=C\c1ccc2c(c1)N(S(=O)(=O)c1cccc(C(F)(F)F)c1)C[C@H](CCCn1ccnn1)O2)c1c(F)cccc1Cl | < 100 | *** (a value in the range of greater than 150 to 200) | 100 to 5000 | ** (a value in the range of greater than 90 to 150)
CCOc1nn(CC)cc1S(=O)(=O)N1C[C@H](CCc2n[nH]c(=O)o2)Oc2ccc(/C=C/c3c(Cl)cccc3C(F)(F)F)cc21 | < 100 | **** (a value greater than 200) | 100 to 5000 | ** (a value in the range of greater than 90 to 150)
O=c1[nH]nc(CC[C@H]2CN(S(=O)(=O)c3cccc(C(F)(F)F)c3)c3cc(/C=C/c4c(Cl)cccc4C(F)(F)F)ccc3O2)o1 | < 100 | *** (a value in the range of greater than 150 to 200) | 100 to 5000 | ** (a value in the range of greater than 90 to 150)
C/C(=C\c1ccc2c(c1)N(S(=O)(=O)c1cccc(C(F)(F)F)c1)C[C@H](CCn1cc(C(=O)O)nn1)O2)c1c(F)cccc1Cl | < 100 | *** (a value in the range of greater than 150 to 200) | 100 to 5000 | *** (a value in the range of greater than 150 to 200)
C/C(=C\c1ccc2c(c1)N(S(=O)(=O)c1cccc(C(F)(F)F)c1)C[C@H](CCCc1nn[nH]n1)O2)c1c(F)cccc1Cl | 100 to 5000 | *** (a value in the range of greater than 150 to 200) | 100 to 5000 | ** (a value in the range of greater than 90 to 150)
C/C(=C\c1ccc2c(c1)N(S(=O)(=O)c1cccc(C(F)(F)F)c1)C[C@H](CCn1ccnc1C)O2)c1c(F)cccc1Cl | < 100 | *** (a value in the range of greater than 150 to 200) | 100 to 5000 | ** (a value in the range of greater than 90 to 150)
C/C(=C\c1ccc2c(c1)N(S(=O)(=O)c1cccc(C(F)(F)F)c1)C[C@H](CCCn1cccn1)O2)c1c(F)cccc1Cl | < 100 | *** (a value in the range of greater than 150 to 200) | 100 to 5000 | ** (a value in the range of greater than 90 to 150)
C/C(=C\c1ccc2c(c1)N(S(=O)(=O)c1ccc(F)c(OC(F)F)c1)C[C@H](CCc1n[nH]c(=O)o1)O2)c1c(F)cccc1Cl | < 100 | **** (a value greater than 200) | 100 to 5000 | ** (a value in the range of greater than 90 to 150)
C/C(=C\c1ccc2c(c1)N(S(=O)(=O)c1cccc(C(F)(F)F)c1)C[C@H](CCCn1cc(C(=O)O)nn1)O2)c1c(F)cccc1Cl | < 100 | *** (a value in the range of greater than 150 to 200) | 100 to 5000 | ** (a value in the range of greater than 90 to 150)
